Peptide text beside a SMILES is read from it.

These results are taken from US12303590B2, “Method of treating osteoarthritis” (ORTHOTROPHIX, INC., priority 2018, dated 2025).

Series [1] concerns standardized large cartilage defects. The following applies: in vivo; cited from earlier work.
Series [2] has as its system subjects with bilateral patello-femoral knee osteoarthritis. The experiment in a line: Randomized double-blind placebo-controlled study of TPX-100 in patients with osteoarthritis of the knees (Example 1). Type of series: in vivo, human. On the procedure: A multicenter, randomized double-blind, placebo-controlled study was designed to investigate the safety, tolerability, pharmacokinetics, and efficacy of TPX-100 administered in four weekly doses in subjects with bilateral patello-femoral knee osteoarthritis. The study was conducted under an open IND (investigational new drug application) at CDER (Center for Drug Evaluation and Research) of the U.S. FDA (The United States Food and Drug Administration) in compliance with GCP (Good Clinical Practice) and ICH (International Conference on Harmonization of Technical Requirements for Registration of Pharmaceuticals for Human Use) guidelines. Eighteen (18) orthopedic, rheumatologic and family practice centers in the U.S. participated in the study.
The study was divided into Part A and Part B. The Part A was designed to evaluate safety of intra-articular (I.A.) administration of TPX-100 at different dosing levels (20, 50, 100, or 200 mg per injection in sequential cohorts) in the subjects with osteoarthritis of the knees and to select a dose for Part B. Part B was to evaluate safety and efficacy of the selected dose of TPX-100.
Subjects in Part A were enrolled in sequential cohorts and randomized to receive 20, 50, 100 or 200 mg of TPX-100 in one knee (Index Knee) and identical placebo in the contralateral (Control) knee. Subjects, sites and sponsor and central MRI readers were blinded as to treatment assignment. A Safety Review Committee (SRC) evaluated safety in each dosing cohort. The SRC assessed safety and determined whether the next higher dosing regimen could be enrolled. All dosing cohorts in Part A were completed and analyzed with regard to safety prior to dose selection and initiation of Part B.
Part A included four (4) intra-articular (I.A.) injections, one per week, in sequential dosing cohorts of 20, 50, 100 and 200 mg TPX-100 versus placebo. Six (6) subjects were enrolled in 20, 50, and 100 mg cohorts, respectively, and nine (9) subjects were enrolled in the 200 mg cohort.
The 200 mg dose was selected for Part B based on safety review and the approval of the SRC. […] Per the Statistical Analysis Plan, these subjects were combined with the nine subjects in the 200 mg cohort of Part A for the efficacy analysis. In total, data from 93 subjects was analyzed for drug efficacy, each of whom received 4 once-weekly injections of TPX-100, 200 mg/dose, in the Index knee and identical placebo in the contralateral knee, as randomly assigned. […]
If all clinical inclusion and exclusion criteria were met, MRIs of both knees were obtained and evaluated by a central reader to determine the ICRS grade (gICRS) of each knee as the final screening criterion. […]

The test system of a further series is defects in human molar. The following applies: both Phase 2 studies (alveolar bone and dentin); cited from earlier work.
For series [3] the following is noted: human, in vivo; cited from earlier work.
Series [4] concerns human osteoblastic mesenchymal stem cells. The following applies: U.S. Pat. Nos. 7,888,462 and 8,426,558; cited from earlier work.

Consider `CC[C@H](C)[C@H](NC(=O)[C@H](CC(=O)O)NC(=O)[C@H](CC(N)=O)NC(=O)[C@H](CC(=O)O)NC(=O)CNC(=O)[C@H](CCCNC(=N)N)NC(=O)[C@H](CCC(=O)O)NC(=O)[C@H](CCC(N)=O)NC(=O)[C@H](CC(C)C)NC(=O)[C@H](CC(=O)O)NC(=O)[C@@H](N)[C@@H](C)O)C(=O)N[C@@H](CO)C(=O)N1CCC[C@H]1C(=O)N[C@@H](Cc1ccccc1)C(=O)N[C@@H](CO)C(=O)NCC(=O)N[C@@H](CC(=O)O)C(=O)NCC(=O)N[C@@H](CCC(N)=O)C(=O)N1CCC[C@H]1C(=O)N[C@@H](Cc1ccccc1)C(=O)N[C@@H](CCCCN)C(=O)N[C@@H](CC(=O)O)C(N)=O` [TPX-100] (H-TDLQERGDNDISPFSGDGQPFKD-NH2; N-terminus assumed), for which, in series [1], the Safety and tolerability result is “safe and well-tolerated”. Further, the Dose-limiting toxicities entry in series [2] (Part A, 20, 50, 100 and 200 mg per injection) is listed as “no dose-limiting toxicities”. For the same compound, in series [2] (human, in vivo), the Severe adverse events result is reported as “no severe adverse events that were related to TPX-100 treatment” and the Treatment-related adverse events entry was “mild or moderate, transient”. Besides, the Safety and tolerability result in series [2] (intra-articular, Days 0, 7, 14, 21) was “safe and well tolerated”. In addition, in the series on defects in human molar, the Tolerability entry is given as “well tolerated in both studies”.

For the compound `N#Cc1c(N(CC(=O)[O-])CC(=O)[O-])sc(C(=O)[O-])c1CC(=O)[O-].[Sr+2].[Sr+2]` [strontium ranelate], in series [3], the Adverse effect result is “increase the risk of myocardial infarction”.

As for “PDLLVRGDNDVPPFSGDGQHFMH [rat orthologue, TPX-100 orthologue (Rat/Mouse)]”, the Tritium-thymidine incorporation entry in series [4] was “promote tritium-thymidine incorporation”.
